{"source": "patent US6468964B1", "about": "“Control of acidic gut syndrome” (University of New England, of Armidale, priority 1997, dated 2002)", "key": {"[1]": {"tested_on": "acid accumulation in the hind gut", "experiment": "Acidic gut syndrome in pigs fed HGF diet: digesta/faecal pH and faecal consistency", "format": "in vivo, pig", "description": "Pigs were weaned at 4 weeks of age and housed individually in pens with concrete floors with weld mesh dividing walls in temperature controlled facilities. The pens were cleaned twice per day and drinking water was provided by an automatic watering system. All animals were handled daily to acclimatise them to experimental procedures associated with sampling.\nPiglets were fed ad libitum on the basal diet for two weeks until commencement of dietary treatments. The diets were formulated to ensure balanced provisions of nutrients for growth and contained 67.5% carbohydrate (rice, cornflour and raftilose) and 32.5% protein mix. The protein mix contained 55% meat meal, 32% fishmeal, 6% casein and 6% vitamins, oil and synthetic amino acids. The proportion of total carbohydrates contributed by rice, corn flour and raftilose on each day of the study is shown in Table 1 together with the total amount offered per pig.\n1. Daily collection of faeces from the pens of each pig to assess faecal consistency and for measurement of pH. Faecal consistency was assessed on a scale 1 to 5 with 1 being liquid diarrhoea and 5 being dry, separate, well formed faeces.\n(§1) 7. On day 7, half of the pigs in each treatment group were euthanased with pentobarbitone. Post mortem measurements were made of size of the digestive tract, the pH of diqesta in different part of the tract and the digestive tract and other organs were examined for any sign of abnormal tissue appearance. On day 8 the remaining pigs were euthanased and the same post mortem measurements made on these animals."}, "Caecal Lactobacilli": {"tested_on": "Caecal Lactobacilli", "experiment": "Pigs fed HGF diet: caecal Lactobacilli count", "format": "in vivo", "conditions": "HGF diet with 25 mg virginiamycin/kg DM", "description": "(§2) Studies of rapid carbohydrate fermentation and acid build up in the hind gut of sheep and horses have shown that the concentration of volatile fatty acids (VFA) starts to increase and pH starts to drop before there is a proliferation of gram positive bacteria (particularly Streptococcus bovis and Lactobacilli) capable of producing lactic-acid. Lactic acid is a stronger acid than the VFA and is not absorbed from the caecum as quickly as VFA, and this combination of factors leads to low pH which is the first step in development of acidic gut syndrome. Virginiamycin was included in the diet of one of the two dietary treatments containing raftilose and high-maize starch to investigate its effectiveness in controlling lactic acid accumulation and hind gut pH as a potential method for preventing or controlling acidic gut syndrome.\nas §1"}, "Caecal Strep. Bovis": {"tested_on": "Caecal Strep. Bovis", "experiment": "Pigs fed HGF diet: caecal Strep. bovis count", "format": "in vivo, Streptococcus bovis", "conditions": "HGF diet with 25 mg virginiamycin/kg DM", "description": "as §2, §1"}, "[2]": {"tested_on": "immune system (neutrophils, lymphocytes, acute phase protein, IL-1)", "experiment": "Pigs fed HGF diet: changes in immune system (white blood cells, acute phase protein, IL-1)", "format": "in vivo, pig", "conditions": "HGF diet with 25 mg virginiamycin/kg DM"}, "[3]": {"experiment": "Pigs fed HGF diet: feed intake, weight change, weight of washed gut", "format": "in vivo, pig", "procedure": "3. Body weights were measured 2 days before the start of feeding experimental diets, on day 3 and day 7.\n5. The amount of feed not consumed was measured each afternoon and intake calculated as a % of amount offered.\nas §1"}, "[4]": {"tested_on": "fermentative acidosis in the rumen and hind gut", "experiment": "Sheep overfed high-barley pellets: rumen and faecal pH, lactate, rumen VFA", "format": "in vivo", "description": "(§3) Six full mouth cannulated cross-bred sheep, weighing approximately 45 kg were used in the trial. These sheep were housed in individual pens on a wood grating floor in an enclosed animal house. All sheep were fed once per day, and water was available at all times ad libitum. All sheep were fed a basal diet consisting of oaten chaff plus 1% urea and 1% mineral pre-mix (Pfizer Animal Health Pty. Ltd.). At time 0 in the experiment, all sheep were fed a pellet containing high levels of barley with or without virginiamycin (VM). The sheep were autopsied 48 hours after grain feeding.\n(§4) All sheep were offered 1000 g of a pellet containing 76% barley, 17% lucerne, 3.5% cottonseed meal, 1% urea and 1.5% limestone at the start of the experiment. The sheep were then offered another 1000 g of the pellet 12 hours later. All sheep consumed all of the pelleted feed offered. Half of the sheep received the pellets with no dietary additives, and the other half received the pellets with virginiamycin (VM) added at 30 mg/kg. Eskalin (Pfizer Animal Health Pty. Ltd., 20 g virginiamycin/kg) was included at 1.5 g/kg pellets to provide 30 mg VM/kg in the mixed diet. The animals were monitored closely after receiving grain and autopsied 48 hours after initial grain feeding.\n(§5) All sheep were fitted with faecal collection bags, which consisted of a PVC ring attached to the posterior of the sheep to which a plastic bag was attached in order to collect total faecal output. Rumen fluid was taken via the rumen fistula. Rumen and faecal samples were taken at 4 hourly intervals for the first 12 hours after grain feeding. Samples were then taken at 24, 36 and 48 hours after initial feeding.\nRumen fluid pH was analysed immediately using a portable pH meter (‘Piccolo 2’ ATC pH meter by Hanna Instruments). A sample was also added to a 20 mL McCartney bottle containing approximately 7 μL of concentrated H2SO4, and frozen for later analysis of lactic and volatile fatty acids.\n(§6) A representative 20 g sample of faeces was taken into a small vial, an equal volume of water added and mixed well. The faecal pH was then measured immediately on this sample as for rumen fluid. A further sample was placed in a sterile container and an equal weight of deionised water added to it. This was mixed well using a sterile spatula, and then centrifuged at 15000 rpm for 20 mins. The supernatant was then transferred using a sterile pipette to 3 individual microfuge tubes and frozen for later analysis for TNF-α. TNF-α was measured in the faeces using an ELISA method."}, "TNF-α": {"tested_on": "TNF-α", "experiment": "Sheep overfed high-barley pellets: faecal TNF-α by ELISA", "format": "in vivo", "conditions": "VM 30 mg/kg pellets; for Faecal TNF-α concentration, individual sheep: sheep 2, 4, 6, listed as VM", "description": "as §3, §4, §5, §6"}, "[5]": {"tested_on": "acid accumulation in the hind gut", "experiment": "Acidic gut syndrome in pigs fed HGF diet: digesta/faecal pH and faecal consistency", "format": "in vivo, pig", "conditions": "HGF diet with 25 mg virginiamycin/kg DM, post mortem"}, "[6]": {"conditions": "pigs on HGF diet, 25 mg virginiamycin/kg DM"}, "[7]": {"conditions": "weaner pigs, HGF diet with 25 mg virginiamycin/kg dietary DM, post mortem"}, "[8]": {"conditions": "pigs, post mortem, HGF diet with 25 mg virginiamycin/kg DM"}, "[9]": {"conditions": "proportion mmol/100 mmol, sheep, VM 30 mg/kg"}, "[10]": {"conditions": "sheep fed high grain pellets, VM 30 mg/kg"}, "[11]": {"conditions": "sheep overfed grain, VM 30 mg/kg pellets"}, "[12]": {"conditions": "sheep overfed grain, VM 30 mg/kg, 36 and 48 hour samples"}, "[13]": {"conditions": "sheep, VM 30 mg/kg versus no additive"}}, "note": "Several values for one entry are separate records, joined by “and”; a condition that tells them apart may be missing. Identical values can stand only once. Marks after values point to notes of the source that are not given here.", "data": [{"substance": "virginiamycin", "values": [{"measurement": "pH in different parts of the digestive tract (FIG. 6, words)", "setting": "[1]; pigs fed HGF diet with or without virginiamycin", "result": "consistent effect in reducing acid accumulation (increasing pH) in all parts of the digestive tract"}, {"measurement": "Acid accumulation in the hind gut and in faeces", "setting": "[1]; [6]", "result": "effective in reducing the extent of acid accumulation"}, {"measurement": "Effect on faecal consistency", "setting": "[1]; [6]", "result": "significantly improved faecal consistency"}, {"measurement": "Ileal pH", "setting": "[1]; pigs, HGF diet with 25 mg virginiamycin/kg DM, post mortem", "result": 6.3}, {"measurement": "Faecal consistency (av d1-5)", "setting": "[1]; scale 1 to 5, 1 liquid diarrhoea, 5 dry well formed faeces, pigs, HGF diet with 25 mg virginiamycin/kg DM", "result": "3.53^c"}, {"measurement": "Average faecal pH", "setting": "[1]; weaner pigs, HGF diet with 25 mg virginiamycin/kg DM", "result": "6.0^b"}, {"measurement": "Faecal pH (day 2)", "setting": "[1]; weaner pigs, HGF diet with 25 mg virginiamycin/kg DM, day 2", "result": "6.3^b"}, {"measurement": "Faecal pH (day 5)", "setting": "[1]; weaner pigs, HGF diet with 25 mg virginiamycin/kg DM, day 5", "result": "6.0^b"}, {"measurement": "Caecal pH", "setting": "[1]; [7]", "result": "5.7^ab"}, {"measurement": "Rectal pH", "setting": "[1]; [7]", "result": "6.3^b"}, {"measurement": "Caecal Lactobacilli", "setting": "Caecal Lactobacilli", "result": "1.4 × 10^10"}, {"measurement": "Caecal Strep. Bovis", "setting": "Caecal Strep. Bovis", "result": "3.2 × 10^9"}, {"measurement": "Acute phase protein CD3", "setting": "[2]", "result": 5.9}, {"measurement": "IL-1 (av. days 1, 2, 5 & 8)", "setting": "[2]", "result": 1.6}, {"measurement": "IL-1 (day 5)", "setting": "[2]; day 5", "result": 2.0}, {"measurement": "Lymphocytes (L)", "setting": "[2]; jugular blood", "result": 11.0}, {"measurement": "N:L ratio", "setting": "[2]; neutrophil to lymphocyte ratio", "result": 0.57, "unit": "a"}, {"measurement": "Feed intake versus HGF diet alone", "setting": "[3]; pigs on HGF diet treated with virginiamycin", "result": "higher intake"}, {"measurement": "Weight change (days 3 to 7)", "setting": "[3]; pigs, HGF diet with 25 mg virginiamycin/kg DM", "result": 1.13}, {"measurement": "Intake (% offered) (day 4)", "setting": "[3]; pigs, HGF diet with 25 mg virginiamycin/kg DM, day 4", "result": "81^ab % offered"}, {"measurement": "Av intake (days 1 to 8)", "setting": "[3]; pigs, HGF diet with 25 mg virginiamycin/kg DM, intake calculated as % of amount offered", "result": "83^ab"}, {"measurement": "Weight of washed gut (g): Caecum", "setting": "[3]; [8]", "result": "31.4^a g"}, {"measurement": "Weight of washed gut (g): Rectum", "setting": "[3]; [8]", "result": 35.1, "unit": "g"}, {"measurement": "Weight of washed gut (g): Stomach", "setting": "[3]; [8]", "result": 115, "unit": "g"}, {"measurement": "Rumen Ac (%)", "setting": "[4]; [9]", "result": 50.941, "unit": "%"}, {"measurement": "Rumen But (%)", "setting": "[4]; [9]", "result": 8.75, "unit": "%"}, {"measurement": "Rumen Pr (%)", "setting": "[4]; [9]", "result": 34.36, "unit": "%"}, {"measurement": "Ratio of Propionate to Acetate+(2×Butyrate)", "setting": "[4]; rumen, sheep fed VM versus no additive", "result": "significantly higher"}, {"measurement": "Rumen D-Lactic acid", "setting": "[4]; [10]", "result": 25.12, "unit": "mmol/L"}, {"measurement": "Rumen L-Lactic acid", "setting": "[4]; [10]", "result": 7.33, "unit": "mmol/L"}, {"measurement": "Rumen total VFA", "setting": "[4]; [10]", "result": 81.80, "unit": "mmol/L"}, {"measurement": "Average faecal pH", "setting": "[4]; [11]", "result": 7.28}, {"measurement": "Average rumen pH", "setting": "[4]; [11]", "result": 5.84}, {"measurement": "Faecal D-lactate", "setting": "[4]; [12]", "result": 7.43}, {"measurement": "Faecal L-lactate", "setting": "[4]; [12]", "result": 28.2}, {"measurement": "Difference in rumen or faecal pH between treatment groups", "setting": "[4]; [13]", "result": "no differences"}, {"measurement": "Treatment effect on rumen lactic acid concentration", "setting": "[4]; [13]", "result": "No treatment effects"}, {"measurement": "pH in different parts of the digestive tract (FIG. 8, words)", "setting": "[4]; sheep, high-barley pellets with or without virginiamycin, autopsy at 48 hours", "result": "consistent effect in reducing acid accumulation (increasing pH) in all parts of the digestive tract"}, {"measurement": "Faecal TNF-α concentration, group average", "setting": "TNF-α; experimental hour 0", "result": 12333}, {"measurement": "Faecal TNF-α concentration, individual sheep", "setting": "TNF-α; experimental hour 0", "result": "9000 and 16000 and 12000"}, {"measurement": "Faecal TNF-α concentration, group average", "setting": "TNF-α; experimental hour 24", "result": 17667}, {"measurement": "Faecal TNF-α concentration, individual sheep", "setting": "TNF-α; experimental hour 24", "result": "12000 and 24000 and 17000"}, {"measurement": "Faecal TNF-α concentration, group average", "setting": "TNF-α; experimental hour 36", "result": 62444}, {"measurement": "Faecal TNF-α concentration, individual sheep", "setting": "TNF-α; experimental hour 36", "result": "98333 and 64000 and 25000"}, {"measurement": "Faecal TNF-α concentration, group average", "setting": "TNF-α; experimental hour 48", "result": 124222}, {"measurement": "Faecal TNF-α concentration, individual sheep", "setting": "TNF-α; experimental hour 48", "result": "230667 and 66000 and 76000"}, {"measurement": "Stomach pH (days 8/9)", "setting": "[5]", "result": 3.6}]}]}
